# Molecular target: WT αHL protein pore (Staphylococcus aureus, UniProt P09616)
# Format: binding
# Conditions: pH 7
# Chain of WT αHL protein pore (P09616 27-319 limits assumed): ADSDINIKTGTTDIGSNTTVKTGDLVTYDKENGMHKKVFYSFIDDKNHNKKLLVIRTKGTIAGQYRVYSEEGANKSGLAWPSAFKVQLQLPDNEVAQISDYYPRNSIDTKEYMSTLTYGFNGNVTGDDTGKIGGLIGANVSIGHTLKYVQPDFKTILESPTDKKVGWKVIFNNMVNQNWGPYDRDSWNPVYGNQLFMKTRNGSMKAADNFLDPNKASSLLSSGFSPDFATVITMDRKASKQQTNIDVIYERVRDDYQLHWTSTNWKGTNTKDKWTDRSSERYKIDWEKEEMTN
smiles,measurement,value
OC[C@H]1O[C@@H]2O[C@H]3[C@H](O)[C@@H](O)[C@@H](O[C@H]4[C@H](O)[C@@H](O)[C@@H](O[C@H]5[C@H](O)[C@@H](O)[C@@H](O[C@H]6[C@H](O)[C@@H](O)[C@@H](O[C@H]7[C@H](O)[C@@H](O)[C@@H](O[C@H]8[C@H](O)[C@@H](O)[C@@H](O[C@H]9[C@H](O)[C@@H](O)[C@@H](O[C@H]1[C@H](O)[C@H]2O)O[C@@H]9CO)O[C@@H]8CO)O[C@@H]7CO)O[C@@H]6CO)O[C@@H]5CO)O[C@@H]4CO)O[C@@H]3CO [γ-cyclodextrin],"binding kinetics and current attenuation of γ-cyclodextrin binding, pore inserted by the present method compared with the conventional method",the same

# — patent publication US7939270B2 (priority 2005, dated 2011)
